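Briefly, cells in 96-well plates were exposed to five compound concentrations for 48 h, and endpoints were estimated by linear interpolation. At the TGI there is no net growth.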
Legend:
Assay in all cases: growth of human tumour cells (NCI), 48 h
HCT-116 colon = system: HCT-116 colon
OVCAR-8 ovarian = system: OVCAR-8 ovarian
SK-MEL-28 melanoma = system: SK-MEL-28 melanoma
SNB-75 CNS = system: SNB-75 CNS
OVCAR-5 ovarian = system: OVCAR-5 ovarian
SW-620 colon = system: SW-620 colon
PC-3 prostate = system: PC-3 prostate
SNB-19 CNS = system: SNB-19 CNS
HCC-2998 colon = system: HCC-2998 colon
RXF 393 renal = system: RXF 393 renal
UO-31 renal = system: UO-31 renal
A498 renal = system: A498 renal
OVCAR-3 ovarian = system: OVCAR-3 ovarian
MDA-MB-435 = system: MDA-MB-435
KM12 colon = system: KM12 colon
U251 CNS = system: U251 CNS
ACHN renal = system: ACHN renal
UACC-62 melanoma = system: UACC-62 melanoma
SR leukemia = system: SR leukemia
EKVX NSCLC = system: EKVX NSCLC
NCI/ADR-RES ovarian = system: NCI/ADR-RES ovarian
SF-268 CNS = system: SF-268 CNS
NCI-H226 lung = system: NCI-H226 lung
MCF7 breast = system: MCF7 breast
HT29 colon = system: HT29 colon
OVCAR-4 ovarian = system: OVCAR-4 ovarian
RPMI-8226 leukemia = system: RPMI-8226 leukemia
MDA-MB-231 breast = system: MDA-MB-231 breast
SN12C renal = system: SN12C renal
HOP-92 NSCLC = system: HOP-92 NSCLC
SK-MEL-5 melanoma = system: SK-MEL-5 melanoma
MALME-3M melanoma = system: MALME-3M melanoma
DU-145 prostate = system: DU-145 prostate
SK-MEL-2 melanoma = system: SK-MEL-2 melanoma
CAKI-1 renal = system: CAKI-1 renal
HOP-62 NSCLC = system: HOP-62 NSCLC
786-0 renal = system: 786-0 renal
UACC-257 melanoma = system: UACC-257 melanoma
T-47D breast = system: T-47D breast
COLO 205 colon = system: COLO 205 colon
MOLT-4 leukemia = system: MOLT-4 leukemia
NCI-H23 lung = system: NCI-H23 lung
IGROV1 ovarian = system: IGROV1 ovarian
HCT-15 colon = system: HCT-15 colon
M14 melanoma = system: M14 melanoma
SK-OV-3 ovarian = system: SK-OV-3 ovarian
LOX IMVI melanoma = system: LOX IMVI melanoma
NCI-H460 lung = system: NCI-H460 lung
NCI-H522 lung = system: NCI-H522 lung
A549 NSCLC = system: A549 NSCLC
HS 578T breast = system: HS 578T breast
TK-10 renal = system: TK-10 renal
SF-539 CNS = system: SF-539 CNS
SF-295 CNS = system: SF-295 CNS

Measured: TGI

O/N=C1/COC(C(F)(F)F)(C(F)(F)F)C1
> 100 µM: all assays above

— PubChem BioAssay (NCI)
